Assay results as given in EP3556362A1, “STING INHIBITORS” (ECOLE POLYTECHNIQUE FEDERALE DE LAUSANNE (EPFL), priority 2018, dated 2019).

Tests used:
TBK1 = target: T1, TBK1 (Homo sapiens, UniProt Q9UHD2); assay: IFN-β luciferase reporter assay in HEK293T cells, TBK1 driven; details: 0.31-2.5µM, 16 h (Figure 2)
T1 sequence (Q9UHD2 1-729): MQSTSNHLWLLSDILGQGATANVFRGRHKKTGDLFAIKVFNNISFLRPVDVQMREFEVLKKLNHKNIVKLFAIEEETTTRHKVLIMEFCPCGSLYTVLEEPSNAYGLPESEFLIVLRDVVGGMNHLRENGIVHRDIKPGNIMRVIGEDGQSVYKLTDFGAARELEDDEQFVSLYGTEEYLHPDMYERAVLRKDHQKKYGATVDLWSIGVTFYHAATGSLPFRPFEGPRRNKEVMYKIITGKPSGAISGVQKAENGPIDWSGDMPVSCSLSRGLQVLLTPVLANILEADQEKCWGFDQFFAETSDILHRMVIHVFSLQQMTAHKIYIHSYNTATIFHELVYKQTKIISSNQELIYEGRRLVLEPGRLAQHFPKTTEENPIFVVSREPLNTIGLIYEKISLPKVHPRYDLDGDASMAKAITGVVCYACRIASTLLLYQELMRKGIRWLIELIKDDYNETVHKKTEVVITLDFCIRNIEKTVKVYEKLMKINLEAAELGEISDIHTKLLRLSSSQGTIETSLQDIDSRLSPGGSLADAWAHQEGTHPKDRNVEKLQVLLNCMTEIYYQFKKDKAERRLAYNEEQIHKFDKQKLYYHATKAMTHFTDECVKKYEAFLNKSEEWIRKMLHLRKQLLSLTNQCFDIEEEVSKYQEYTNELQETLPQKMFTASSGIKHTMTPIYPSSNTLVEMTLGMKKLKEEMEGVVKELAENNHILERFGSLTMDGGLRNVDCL

RIG-I = target: T2, RIG-I (Homo sapiens, UniProt O95786); assay: IFN-β luciferase reporter assay in HEK293T cells, RIG-I driven (counter-screen and validation)
T2 sequence (O95786 1-925): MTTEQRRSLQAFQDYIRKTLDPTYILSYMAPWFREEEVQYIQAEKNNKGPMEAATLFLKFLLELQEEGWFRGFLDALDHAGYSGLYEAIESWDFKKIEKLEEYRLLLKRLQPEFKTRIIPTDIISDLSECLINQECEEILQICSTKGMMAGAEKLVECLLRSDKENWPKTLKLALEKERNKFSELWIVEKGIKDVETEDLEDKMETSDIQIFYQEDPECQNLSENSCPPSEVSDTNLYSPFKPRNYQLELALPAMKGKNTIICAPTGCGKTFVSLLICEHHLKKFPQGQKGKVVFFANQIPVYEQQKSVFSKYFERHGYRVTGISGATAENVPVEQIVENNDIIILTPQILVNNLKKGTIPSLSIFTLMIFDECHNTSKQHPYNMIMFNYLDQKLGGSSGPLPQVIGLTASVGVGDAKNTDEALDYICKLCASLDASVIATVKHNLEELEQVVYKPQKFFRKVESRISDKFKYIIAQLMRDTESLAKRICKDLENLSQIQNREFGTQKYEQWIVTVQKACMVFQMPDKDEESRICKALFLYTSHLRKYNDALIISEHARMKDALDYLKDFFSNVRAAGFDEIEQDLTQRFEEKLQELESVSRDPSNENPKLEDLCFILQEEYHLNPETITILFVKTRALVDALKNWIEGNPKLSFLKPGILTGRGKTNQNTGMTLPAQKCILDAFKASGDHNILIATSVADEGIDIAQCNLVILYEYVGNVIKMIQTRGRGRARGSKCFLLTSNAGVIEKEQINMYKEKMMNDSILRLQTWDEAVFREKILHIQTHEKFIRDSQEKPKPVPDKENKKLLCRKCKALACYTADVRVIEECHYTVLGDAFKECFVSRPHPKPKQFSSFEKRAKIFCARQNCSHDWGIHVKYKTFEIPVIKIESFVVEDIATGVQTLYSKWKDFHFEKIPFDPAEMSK

TBK1-mediated type I IFN induction (TBK1): failed to suppress
RIG-I-mediated type I IFN induction (RIG-I; 0.31-2.5µM, 16 h (Figure 2)): failed to suppress
Compound: CCc1ccc(NC(=O)Nc2c[nH]c3ccccc23)cc1 [F2740-0151, 1-(4-ethylphenyl)-3-(1H-indol-3-yl)urea]
RIG-I driven activation of the IFN-β reporter (RIG-I; counter-screen of hits from the primary screen): but not RIG-I-dependent type I IFN induction
